Data reported in patent publication US11447480B2, “Compound exhibiting enteropeptidase inhibitory activity” (LG CHEM, LTD., priority 2018, dated 2022).

Biological target: Recombinant Human Enteropeptidase (Homo sapiens (Human), UniProt P98073)
Assay: Enteropeptidase Inhibition Assay
Assay type: biochemical
Conditions: substrate Acetyl-Asp-Asp-Asp-Asp-Lys-AFC 30 μM, 30° C., 1 hour; Ki calculated from IC50 using Cheng-Prusoff equation
Experimental: Enteropeptidase Inhibition Assay
The inhibitory activity of the enteropeptidase inhibitor synthesized using the purified Recombinant Human Enteropeptidase and the substrate Acetyl-Asp-Asp-Asp-Asp-Lys-AFC (BioVision) was measured. 7.2 ng/mL of Enteropeptidase diluted with a buffer (20 mM Tris, 50 mM NaCl, pH 7.5) in a 96 well plate (Costar), 30 μM of Acetyl-Asp-Asp-Asp-Asp-Lys-AFC, several concentrations of Enteropeptidase inhibitors (1% DMSO concentration) were dispensed such that a final volume was 100 μL, and then the enzyme reaction was carried out at 30° C. for 1 hour. At this time, 1% DMSO, a substrate and Enteropeptidase instead of the compound were dispensed onto positive control wells, and 1% DMSO and a substrate were dispensed onto negative control wells. The enzyme reaction was […] using an excitation wavelength of 380 nm and an emission wavelength of 500 nm in a fluorescence spectrometer, and then the rate of increase in fluorescence (milli-units per min) between 20 and 60 minutes was measured.
The fluorescence measurement values reduced by the inhibitor diluted at each concentration were converted into relative values % of the positive control group (100% reactivity) and the negative control group (0% reactivity), and used to calculate IC50 values. IC50 is the concentration of the inhibitor that inhibits the enzyme activity by 50%, and was calculated using PRISM (GraphPad). Ki values were calculated from the IC50 values using Cheng-Prusoff equation.

Recombinant Human Enteropeptidase, sequence (P98073 whole entry): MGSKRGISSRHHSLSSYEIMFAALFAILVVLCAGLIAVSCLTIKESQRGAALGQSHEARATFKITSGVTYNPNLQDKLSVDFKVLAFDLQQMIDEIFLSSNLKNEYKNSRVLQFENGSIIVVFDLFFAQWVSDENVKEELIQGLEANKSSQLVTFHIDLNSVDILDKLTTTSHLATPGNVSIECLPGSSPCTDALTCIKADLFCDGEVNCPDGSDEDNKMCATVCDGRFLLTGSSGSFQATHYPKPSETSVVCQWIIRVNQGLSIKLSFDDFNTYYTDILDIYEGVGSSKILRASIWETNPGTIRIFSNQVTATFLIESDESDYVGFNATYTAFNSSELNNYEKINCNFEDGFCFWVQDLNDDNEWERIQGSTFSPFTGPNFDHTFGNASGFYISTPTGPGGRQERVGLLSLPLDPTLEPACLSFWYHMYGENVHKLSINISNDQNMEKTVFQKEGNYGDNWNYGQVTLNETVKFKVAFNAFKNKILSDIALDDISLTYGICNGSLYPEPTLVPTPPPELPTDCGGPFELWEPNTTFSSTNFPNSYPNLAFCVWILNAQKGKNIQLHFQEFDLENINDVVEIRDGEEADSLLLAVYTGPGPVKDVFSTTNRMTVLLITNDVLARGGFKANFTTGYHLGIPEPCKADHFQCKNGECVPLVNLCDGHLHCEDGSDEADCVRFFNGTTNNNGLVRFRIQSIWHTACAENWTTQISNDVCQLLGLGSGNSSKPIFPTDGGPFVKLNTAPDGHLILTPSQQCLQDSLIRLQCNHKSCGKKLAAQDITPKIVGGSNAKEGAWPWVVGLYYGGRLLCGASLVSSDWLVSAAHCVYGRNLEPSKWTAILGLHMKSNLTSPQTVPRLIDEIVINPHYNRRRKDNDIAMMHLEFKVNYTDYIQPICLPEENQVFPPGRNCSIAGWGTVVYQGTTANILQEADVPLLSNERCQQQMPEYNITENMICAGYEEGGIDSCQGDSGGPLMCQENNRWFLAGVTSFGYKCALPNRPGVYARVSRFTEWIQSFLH

SMILES | Ki [nM]
N=C(N)c1ccc(OC(=O)c2cnc(N3CCC(C(=O)O)CC3)s2)cc1 [Example 2, 1-(5-((4-Carbamimidoylphenoxy)carbonyl)thiazol-2-yl)piperidine-4-carboxylic Acid] | 4.9
COC(=O)C1CCN(c2ncc(C(=O)Oc3ccc(C(=N)N)cc3)s2)CC1 [Example 3, 4-Carbamimidoylphenyl 2-(4-(methoxycarbonyl)piperidin-1-yl)thiazole-5-carboxylate] | 17
COC(=O)C1CCN(c2ncc(C(=O)Oc3ccc(C(=N)N)cc3F)s2)CC1 [Example 4, 4-Carbamimidoyl-2-fluorophenyl 2-(4-(methoxycarbonyl)piperidin-1-yl)thiazole-5-carboxylate] | 0.92
COC(=O)C1CCN(c2ncc(C(=O)Oc3ccc(NC(=N)N)cc3)s2)CC1 [Example 5, 4-Guanidinophenyl 2-(4-(methoxycarbonyl)piperidin-1-yl)thiazole-5-carboxylate] | 510
N=C(N)Nc1ccc(OC(=O)c2cnc(N3CCC(C(=O)O)CC3)s2)cc1 [Example 6, 1-(5-((4-Guanidinophenoxy)carbonyl)thiazol-2-yl)piperidine-4-carboxylic Acid] | 220
N=C(N)c1ccc(OC(=O)c2cnc(N3CCC(C(=O)O)CC3)s2)c(F)c1 [Example 7, 1-(5-((4-Carbamimidoyl-2-fluorophenoxy)carbonyl)thiazol-2-yl)piperidine-4-carboxylic Acid] | 0.6
COC(=O)CCN(C)c1ncc(C(=O)Oc2ccc(C(=N)N)cc2)s1 [Example 8, 4-Carbamimidoylphenyl 2-((3-methoxy-3-oxopropyl)(methyl)amino)thiazole-5-carboxylate] | 28
CN(CCC(=O)O)c1ncc(C(=O)Oc2ccc(C(=N)N)cc2)s1 [Example 9] | 28
COC(=O)CCNc1ncc(C(=O)Oc2ccc(C(=N)N)cc2)s1 [Example 10, 4-Carbamimidoylphenyl 2-((3-methoxy-3-oxopropyl)amino)thiazole-5-carboxylate] | 11
COC(=O)CCCN(C)c1ncc(C(=O)Oc2ccc(C(=N)N)cc2)s1 [Example 11, 4-Carbamimidoylphenyl 2-((4-methoxy-4-oxobutyl)(methyl)amino)thiazole-5-carboxylate] | 21
CCN(CCC(=O)OC)c1ncc(C(=O)Oc2ccc(C(=N)N)cc2)s1 [Example 12, 4-Carbamimidoylphenyl 2-(ethyl(3-methoxy-3-oxopropyl)amino)thiazole-5-carboxylate] | 9.7
N=C(N)c1ccc(OC(=O)c2cnc(NCCC(=O)O)s2)cc1 [Example 13] | 4.8
CCN(CCC(=O)O)c1ncc(C(=O)Oc2ccc(C(=N)N)cc2)s1 [Example 14] | 5.1
CN(CCCC(=O)O)c1ncc(C(=O)Oc2ccc(C(=N)N)cc2)s1 [Example 15] | 5.7
COC(=O)C1CCN(c2ncc(C(=O)Oc3ccc(C(=N)N)cc3)s2)C1 (stereo not shown) [Example 16, 4-Carbamimidoylphenyl 2-(3-(methoxycarbonyl)pyrrolidin-1-yl)thiazole-5-carboxylate] | 19
N=C(N)c1ccc(OC(=O)c2cnc(N3CCC(C(=O)O)C3)s2)cc1 (stereo not shown) [Example 17, 1-(5-((4-Carbamimidoylphenoxy)carbonyl)thiazol-2-yl)pyrrolidine-3-carboxylic Acid] | 5.4
COC(=O)C(C)(C)CN(C)c1ncc(C(=O)Oc2ccc(C(=N)N)cc2)s1 [Example 18, 4-Carbamimidoylphenyl 2-((3-methoxy-2,2-dimethyl-3-oxopropyl)(methyl)amino)thiazole-5-carboxylate] | 8.9
CN(CC(C)(C)C(=O)O)c1ncc(C(=O)Oc2ccc(C(=N)N)cc2)s1 [Example 19] | 4.8
CCN(CCC(=O)OC)c1ncc(C(=O)Oc2ccc(C(=N)N)cc2F)s1 [Example 20, 4-Carbamimidoyl-2-fluorophenyl 2-(ethyl(3-methoxy-3-oxopropyl)amino) thiazole-5-carboxylate] | 2.5
COC(=O)CCCN(C)c1ncc(C(=O)Oc2ccc(C(=N)N)cc2F)s1 [Example 21, 4-Carbamimidoyl-2-fluorophenyl 2-((4-methoxy-4-oxobutyl)(methyl)amino)thiazole-5-carboxylate] | 3

SMILES | Ki [nM]
CN(CCCC(=O)O)c1ncc(C(=O)Oc2ccc(C(=N)N)cc2F)s1 [Example 22, 4-((5-((4-Carbamimidoyl-2-fluorophenoxy)carbonyl)thiazol-2-yl)(methyl)amino)butanoic Acid] | 0.57
COC(=O)C(C)(C)CNc1ncc(C(=O)Oc2ccc(C(=N)N)cc2)s1 [Example 24, 4-Carbamimidoylphenyl 2-((3-methoxy-2,2-dimethyl-3-oxopropyl)amino)thiazole-5-carboxylate] | 8.9
N=C(N)c1ccc(OC(=O)c2cnc(N3CCC(C(=O)N[C@@H](CC(=O)O)C(=O)O)CC3)s2)cc1 [Example 25] | 4.7
N=C(N)c1ccc(OC(=O)c2cnc(N3CCC(C(=O)Nc4ccccc4)CC3)s2)cc1 [Example 27, 4-Carbamimidoylphenyl 2-(4-(phenylcarbamoyl)piperidin-1-yl)thiazole-5-carboxylate] | 12
N=C(N)c1ccc(OC(=O)c2cnc(N3CCC(NC(=O)c4ccccc4)CC3)s2)cc1 [Example 28, 4-Carbamimidoylphenyl 2-(4-benzamidopiperidin-1-yl)thiazole-5-carboxylate] | 6.5
COC(=O)CNC(=O)C1CCN(c2ncc(C(=O)Oc3ccc(C(=N)N)cc3)s2)CC1 [Example 29, 4-Carbamimidoylphenyl 2-(4-((2-methoxy-2-oxoethyl)carbamoyl)piperidin-1-yl)thiazole-5-carboxylate] | 18
COC(=O)CCNC(=O)C1CCN(c2ncc(C(=O)Oc3ccc(C(=N)N)cc3)s2)CC1 [Example 30, 4-Carbamimidoylphenyl 2-(4-((3-methoxy-3-oxopropyl)carbamoyl)piperidin-1-yl)thiazole-5-carboxylate] | 18
COC(=O)CCCN(C)C(=O)C1CCN(c2ncc(C(=O)Oc3ccc(C(=N)N)cc3)s2)CC1 [Example 31, 4-Carbamimidoylphenyl 2-(4-((4-methoxy-4-oxobutyl)(methyl)carbamoyl)piperidin-1-yl)thiazole-5-carboxylate] | 17
COC(=O)C(C)(C)CNC(=O)C1CCN(c2ncc(C(=O)Oc3ccc(C(=N)N)cc3)s2)CC1 [Example 32, 4-Carbamimidoylphenyl 2-(4-((3-methoxy-2,2-dimethyl-3-oxopropyl)carbamoyl)piperidin-1-yl)thiazole-5-carboxylate] | 18
N=C(N)c1ccc(OC(=O)c2cnc(N3CCC(C(=O)NCC(=O)O)CC3)s2)cc1 [Example 33] | 8.2
N=C(N)c1ccc(OC(=O)c2cnc(N3CCC(C(=O)NCCC(=O)O)CC3)s2)cc1 [Example 34] | 8.9
CN(CCCC(=O)O)C(=O)C1CCN(c2ncc(C(=O)Oc3ccc(C(=N)N)cc3)s2)CC1 [Example 35] | 9.7
CC(C)(CNC(=O)C1CCN(c2ncc(C(=O)Oc3ccc(C(=N)N)cc3)s2)CC1)C(=O)O [Example 36] | 9.7
COC(=O)CNC(=O)C1CCN(c2ncc(C(=O)Oc3ccc(C(=N)N)cc3F)s2)CC1 [Example 37, 4-Carbamimidoyl-2-fluorophenyl 2-(4-((2-methoxy-2-oxoethyl)carbamoyl)piperidin-1-yl)thiazole-5-carboxylate] | 1.8
COC(=O)CCNC(=O)C1CCN(c2ncc(C(=O)Oc3ccc(C(=N)N)cc3F)s2)CC1 [Example 38, 4-Carbamimidoyl-2-fluorophenyl 2-(4-((3-methoxy-3-oxopropyl)carbamoyl)piperidin-1-yl)thiazole-5-carboxylate] | 2.6
COC(=O)C(C)(C)CNC(=O)C1CCN(c2ncc(C(=O)Oc3ccc(C(=N)N)cc3F)s2)CC1 [Example 39, 4-Carbamimidoyl-2-fluorophenyl 2-(4-((3-methoxy-2,2-dimethyl-3-oxopropyl)carbamoyl)piperidin-1-yl)thiazole-5-carboxylate] | 2.5
COc1ccc(NC(=O)C2CCN(c3ncc(C(=O)Oc4ccc(C(=N)N)cc4)s3)CC2)cc1 [Example 40, 4-carbamimidoylphenyl 2-(4-((4-methoxyphenyl)carbamoyl)piperidin-1-yl)thiazole-5-carboxylate] | 9.7
COC(=O)CCCN(C)C(=O)C1CCN(c2ncc(C(=O)Oc3ccc(C(=N)N)cc3F)s2)CC1 [Example 41, 4-Carbamimidoyl-2-fluorophenyl 2-(4-((4-methoxy-4-oxobutyl)(methyl)carbamoyl)piperidin-1-yl)thiazole-5-carboxylate] | 1.8
N=C(N)c1ccc(OC(=O)c2cnc(N3CCC(C(=O)NCC(=O)O)CC3)s2)c(F)c1 [Example 42, (1-(5-((4-Carbamimidoyl-2-fluorophenoxy)carbonyl)thiazol-2-yl)piperidine-4-carbonyl)glycine] | 1
N=C(N)c1ccc(OC(=O)c2cnc(N3CCC(C(=O)NCCC(=O)O)CC3)s2)c(F)c1 [Example 43, 3-(1-(5-((4-Carbamimidoyl-2-fluorophenoxy)carbonyl)thiazol-2-yl)piperidine-4-carboxamido)propanoic Acid] | 1.7
